Measurements as given in patent US20150105252A1, “SUBSTITUTED PYRAZOLES AS HERBICIDES” (E I DU PONT DE NEMOURS AND COMPANY, priority 2013, published 2015).

Tests used:
Assay in all cases: Test F preemergence
[1] = test system: nightshade; type: in vivo, Solanum ptycanthum
From the text: (§1) Seeds of plant species selected from corn (Zea mays), soybean (Glycine max), velvetleaf (Abutilon theophrasti), lambsquarters (Chenopodium album), wild poinsettia (Euphorbia heterophylla), pigweed, palmer (palmer pigweed, Amaranthus palmeri), common waterhemp (Amaranthus rudis), surinam grass (Brachiaria decumbens), large crabgrass (Digitaria sanguinalis), crabgrass, Brazil (Brazilian crabgrass, Digitaria horizontalis), fall panicum (Panicum dichotomiflorum), giant foxtail (Setaria faberii), green foxtail (Setaria viridis), goosegrass (Eleusine indica), johnsongrass (Sorghum halepense), common ragweed (Ambrosia elation), barnyardgrass (Echinochloa crus-galli), southern sandbur (Cenchrus echinatus), arrowleaf sida (Sida rhombifolia), Italian ryegrass (Lolium multiflorum), dayflower, VA (Virginia (VA) dayflower, Commelina virginica), field bindweed (Convolvulus arvensis), cocklebur (common cocklebur, Xanthium strumarium), morningglory (Ipomoea coccinea), nightshade (eastern black nightshade, Solanum ptycanthum), kochia (Kochia scoparia), yellow nutsedge (Cyperus esculentus), and hairy beggarticks (Bidens pilosa), were planted into a silt loam soil and treated preemergence with test chemicals formulated in a non-phytotoxic solvent mixture which included a surfactant.
(§2) At the same time, plants from these crop and weed species and also horseweed (Canada horseweed, Conyza canadensis), smartweed (ladysthumb smartweed, Polygonum persicaria), waterhemp_RES1, (ALS & Triazine resistant common waterhemp, Amaranthus rudis), and waterhemp_RES2, (ALS & HPPD resistant common waterhemp, Amaranthus rudis) were treated with postemergence applications of test chemicals formulated in the same manner. Plants ranged in height from 2 to 18 cm for postemergence treatments (1- to 4-leaf stage). Treated plants and controls were maintained in a greenhouse for 14 to 21 days, after which time all species were compared to controls and visually evaluated. Plant response ratings, summarized in Table F, are based on a scale of 0 to 100 where 0 is no effect and 100 is complete control. A dash (-) response means no test result.

[2] = test system: soybean; type: in vivo, Glycine max
From the text: as §1, §2

[3] = test system: large crabgrass; type: in vivo, Digitaria sanguinalis
From the text: as §1, §2

[4] = test system: wild poinsettia; type: in vivo, Euphorbia heterophylla
From the text: as §1, §2

[5] = test system: southern sandbur; type: in vivo, Cenchrus echinatus
From the text: as §1, §2

[6] = Preemergence, 31 g ai/ha, scale 0 to 100
[7] = Preemergence, 62 g ai/ha, scale 0 to 100
[8] = Preemergence, 125 g ai/ha, scale 0 to 100
[9] = preemergence, 8 g ai/ha, scale 0 to 100, 100 is complete control
[10] = preemergence, 16 g ai/ha, scale 0 to 100, 100 is complete control
[11] = Preemergence, 16 g ai/ha, scale 0 to 100
[12] = preemergence, scale 0 to 100, 100 is complete control
[13] = Preemergence, 250 g ai/ha, scale 0 to 100

Row | Compound | Plant response rating, Nightshade [1, 7] | Plant response rating, Nightshade [1, 8] | Plant response rating, Nightshade [1, 9] | Plant response rating, Nightshade [1, 10] | Plant response rating, Soybean [2, 7] | Plant response rating, Soybean [2, 8] | Plant response rating, Soybean [2, 9] | Plant response rating, Soybean [2, 10] | Plant response rating, Large Crabgrass [3, 7] | Plant response rating, Large Crabgrass [3, 8] | Plant response rating, Large Crabgrass [3, 9] | Plant response rating, Large Crabgrass [3, 10] | Plant response rating, Wild Poinsettia [4, 7] | Plant response rating, Wild Poinsettia [4, 8] | Plant response rating, Wild Poinsettia [4, 9] | Plant response rating, Wild Poinsettia [4, 10] | Plant response rating, Southern Sandbur [5, 7] | Plant response rating, Southern Sandbur [5, 8] | Plant response rating, Southern Sandbur [5, 9] | Plant response rating, Southern Sandbur [5, 10] | also measured
1 | CCOc1cc(C(=O)NCC(F)(F)F)nn1Cc1ccnc(C(F)(F)F)c1 [Compound 104] | 100 | 100 | 0 | 65 | 70 | 90 | 0 | 0 | 100 | 100 | 70 | 90 | 80 | 98 | 0 | 10 | 80 | 90 | 0 | 0 | Plant response rating, Nightshade [1, 6]: 100; Plant response rating, Soybean [2, 6]: 25; Plant response rating, Large Crabgrass [3, 6]: 100; Plant response rating, Wild Poinsettia [4, 6]: 15; Plant response rating, Southern Sandbur [5, 6]: 20
2 | CCNC(=O)c1cc(CCCl)n(Cc2ccnc(C(F)(F)F)c2)n1 [Compound 179] | 85 | 100 | 0 | – | 65 | 70 | 0 | – | 95 | 90 | 0 | – | 40 | 50 | 0 | – | 0 | 35 | 0 | – | Plant response rating, Nightshade [1, 6]: 65; Plant response rating, Soybean [2, 6]: 35; Plant response rating, Large Crabgrass [3, 6]: 40; Plant response rating, Wild Poinsettia [4, 6]: 5; Plant response rating, Southern Sandbur [5, 6]: 0
3 | CCNC(=O)c1cc(CC)n(Cc2ccnc(C(F)(F)F)c2)n1 [Compound 196] | 75 | 95 | 0 | 35 | 50 | 50 | 0 | 0 | 100 | 100 | 35 | 35 | 35 | 65 | 0 | 5 | 10 | 40 | 0 | 0 | Plant response rating, Nightshade [1, 11]: 50; Plant response rating, Soybean [2, 11]: 20; Plant response rating, Large Crabgrass [3, 12]: 95
4 | Cc1cc(C(=O)NC(C)C)nn1Cc1ccnc(C(F)(F)F)c1 [Compound 197] | 30 | 70 | 0 | 10 | 20 | 65 | 0 | 5 | 35 | 100 | 0 | 0 | 35 | 60 | 5 | 0 | 0 | 15 | 0 | 0 | Plant response rating, Nightshade [1, 11]: 20; Plant response rating, Soybean [2, 11]: 10; Plant response rating, Large Crabgrass [3, 12]: 35
5 | CCc1cc(C(=O)NC2CC2)nn1Cc1ccnc(OCC(F)(F)F)c1 [Compound 200] | 20 | 75 | – | – | 0 | 65 | – | 0 | 20 | 100 | – | 0 | 15 | 20 | – | 0 | 0 | 15 | – | 0 | Plant response rating, Nightshade [1, 13]: 98; Plant response rating, Nightshade [1, 11]: 0; Plant response rating, Soybean [2, 13]: 75; Plant response rating, Soybean [2, 11]: 0; Plant response rating, Large Crabgrass [3, 13]: 100; Plant response rating, Large Crabgrass [3, 12]: 35; Plant response rating, Wild Poinsettia [4, 13]: 35; Plant response rating, Southern Sandbur [5, 13]: 60
